Measurements from ChEMBL document CHEMBL5380860, “Design, Synthesis, and Antitumor Activity of Potent and Selective EGFR L858R/T790M Inhibitors and Identification of a Combination Therapy to Overcome Acquired Resistance in Models of Non-small-cell Lung Cancer” (J Med Chem, 2023).

Tests used:
NCI-H1975 = test: Antiproliferative activity against human NCI-H1975 cells harboring EGFR L858R/T790M mutant assessed as reduction in cell viability measured after 72 hrs by MTT assay; assay type: functional, cell-based; conditions: NCI-H1975, 72 h
HCC827 = test: Antiproliferative activity against human HCC827 cells harboring EGFR exon del 19 mutant assessed as reduction in cell viability measured after 72 hrs by MTT assay; assay type: functional, cell-based; conditions: HCC827, 72 h
[1] = Cytotoxicity against human A549 cells harboring wild type EGFR assessed as reduction in cell viability measured after 72 hrs by MTT assay; assay type: toxicity, cell-based
[2] = Cytotoxicity against human A-431 cells harboring wild type EGFR assessed as reduction in cell viability measured after 72 hrs by MTT assay; assay type: toxicity, cell-based
[3] = Selectivity ratio of IC50 for cytotoxicity against human A549 cells harboring wild type EGFR to IC50 for antiproliferative activity against human NCI-H1975 cells harboring EGFR L858R/T790M mutant; assay type: toxicity, cell-based; conditions: read-out: Ratio IC50
[4] = Selectivity ratio of IC50 for cytotoxicity against human A-431 cells harboring wild type EGFR to IC50 for antiproliferative activity against human NCI-H1975 cells harboring EGFR L858R/T790M mutant; assay type: toxicity, cell-based; conditions: read-out: Ratio IC50
[5] = target: Epidermal growth factor receptor (Homo sapiens, UniProt P00533); test: Inhibition of human wild type partial length EGFR (R669 to V1011 residues) expressed in bacterial expression system by KINOMEscan analysis; assay type: toxicity
Sequence of Epidermal growth factor receptor (Homo sapiens, UniProt P00533) (P00533 whole entry, the tested form may be a part): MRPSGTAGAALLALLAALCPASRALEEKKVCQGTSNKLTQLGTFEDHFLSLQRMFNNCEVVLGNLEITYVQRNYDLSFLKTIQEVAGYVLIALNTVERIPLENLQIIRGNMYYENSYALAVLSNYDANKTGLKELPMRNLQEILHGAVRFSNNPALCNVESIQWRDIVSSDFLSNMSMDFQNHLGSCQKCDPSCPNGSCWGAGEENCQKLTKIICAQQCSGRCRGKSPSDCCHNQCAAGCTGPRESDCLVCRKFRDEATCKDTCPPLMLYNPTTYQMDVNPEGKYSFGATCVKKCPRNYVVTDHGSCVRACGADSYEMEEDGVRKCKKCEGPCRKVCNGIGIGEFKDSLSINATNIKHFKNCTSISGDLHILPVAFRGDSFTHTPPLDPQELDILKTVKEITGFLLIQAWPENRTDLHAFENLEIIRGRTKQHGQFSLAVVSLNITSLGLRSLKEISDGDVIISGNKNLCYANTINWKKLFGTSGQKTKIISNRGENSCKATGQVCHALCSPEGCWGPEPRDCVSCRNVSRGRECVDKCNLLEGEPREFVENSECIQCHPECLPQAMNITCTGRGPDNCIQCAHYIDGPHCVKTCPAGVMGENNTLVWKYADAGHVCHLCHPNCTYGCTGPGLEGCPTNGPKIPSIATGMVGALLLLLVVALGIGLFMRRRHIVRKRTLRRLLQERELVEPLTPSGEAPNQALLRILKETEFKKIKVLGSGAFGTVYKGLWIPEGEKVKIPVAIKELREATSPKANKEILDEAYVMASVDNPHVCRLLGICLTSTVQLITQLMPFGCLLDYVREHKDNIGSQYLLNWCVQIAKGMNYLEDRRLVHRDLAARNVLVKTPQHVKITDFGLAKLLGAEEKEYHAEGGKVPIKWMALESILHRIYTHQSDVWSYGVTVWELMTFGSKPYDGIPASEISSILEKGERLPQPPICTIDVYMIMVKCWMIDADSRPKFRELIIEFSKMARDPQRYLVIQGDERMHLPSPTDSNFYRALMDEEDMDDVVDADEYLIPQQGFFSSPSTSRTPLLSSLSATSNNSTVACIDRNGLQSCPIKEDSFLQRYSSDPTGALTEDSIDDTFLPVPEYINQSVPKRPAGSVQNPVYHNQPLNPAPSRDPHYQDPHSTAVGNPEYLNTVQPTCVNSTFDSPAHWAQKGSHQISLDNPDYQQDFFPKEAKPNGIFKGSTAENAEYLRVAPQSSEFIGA

[6] = target: Epidermal growth factor receptor (Homo sapiens, UniProt P00533, L858R/T790M); test: Inhibition of human partial length EGFR (R669 to V1011 residues) L858R/T790M mutant expressed in mammalian expression system by KINOMEscan analysis
Sequence of Epidermal growth factor receptor (Homo sapiens, UniProt P00533, L858R/T790M) (P00533 25-1210 T790M/L858R limits assumed): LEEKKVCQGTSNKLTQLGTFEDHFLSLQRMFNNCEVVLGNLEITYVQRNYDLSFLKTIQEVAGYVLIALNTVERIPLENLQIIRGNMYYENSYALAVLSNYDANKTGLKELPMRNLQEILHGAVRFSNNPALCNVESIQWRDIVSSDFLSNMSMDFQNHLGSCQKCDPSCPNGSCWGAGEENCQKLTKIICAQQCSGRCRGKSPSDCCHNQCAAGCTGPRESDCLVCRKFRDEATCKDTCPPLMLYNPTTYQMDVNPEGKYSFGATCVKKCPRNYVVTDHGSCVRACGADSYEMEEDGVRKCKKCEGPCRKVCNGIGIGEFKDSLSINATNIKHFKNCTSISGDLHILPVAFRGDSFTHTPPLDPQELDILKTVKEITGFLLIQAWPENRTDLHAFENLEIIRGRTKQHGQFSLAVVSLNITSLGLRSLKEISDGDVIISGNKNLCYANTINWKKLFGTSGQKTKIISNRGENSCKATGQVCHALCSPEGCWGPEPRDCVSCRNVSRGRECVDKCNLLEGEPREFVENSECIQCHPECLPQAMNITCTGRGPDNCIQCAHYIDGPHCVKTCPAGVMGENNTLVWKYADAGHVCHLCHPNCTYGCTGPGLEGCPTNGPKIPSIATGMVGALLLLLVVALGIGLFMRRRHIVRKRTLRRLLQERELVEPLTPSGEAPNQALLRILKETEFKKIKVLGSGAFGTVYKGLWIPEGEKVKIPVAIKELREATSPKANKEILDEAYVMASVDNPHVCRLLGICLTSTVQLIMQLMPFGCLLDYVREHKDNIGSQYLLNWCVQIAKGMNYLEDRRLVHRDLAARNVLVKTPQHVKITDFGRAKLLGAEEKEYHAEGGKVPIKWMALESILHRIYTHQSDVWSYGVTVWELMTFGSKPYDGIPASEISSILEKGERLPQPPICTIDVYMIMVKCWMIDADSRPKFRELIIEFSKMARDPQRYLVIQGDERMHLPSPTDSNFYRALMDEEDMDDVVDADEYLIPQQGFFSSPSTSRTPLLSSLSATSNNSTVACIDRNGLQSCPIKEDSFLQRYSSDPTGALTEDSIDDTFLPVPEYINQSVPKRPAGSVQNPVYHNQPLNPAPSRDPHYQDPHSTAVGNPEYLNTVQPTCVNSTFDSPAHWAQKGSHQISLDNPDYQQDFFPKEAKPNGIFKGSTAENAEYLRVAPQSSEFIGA

C=CC(=O)Nc1cccc(Nc2nc(Nc3ccc(N4CCN(C)CC4)cc3)nc3ccc(Cl)cc23)c1
IC50 (NCI-H1975): 17 nM | IC50 (HCC827): 13 nM | IC50 at 72 h [1]: 816 nM | IC50 at 72 h [2]: 1240 nM | selectivity ratio [3]: 48 | selectivity ratio [4]: 73

C=CC(=O)Nc1cccc(Nc2nc(Nc3ccc(N(C)C)cc3)nc3ccc(Cl)cc23)c1
IC50 (NCI-H1975): 2300 nM | IC50 at 72 h [1]: > 10000 nM | IC50 [5]: > 10000 nM | IC50 [6]: 1800 nM

C=CC(=O)Nc1cccc(Nc2nc(Nc3ccc(N4CCN(CC)CC4)cc3)nc3ccc(Cl)cc23)c1
IC50 (NCI-H1975): 21 nM | IC50 (HCC827): 12 nM | IC50 at 72 h [1]: 672 nM | IC50 at 72 h [2]: 735 nM | selectivity ratio [3]: 32 | selectivity ratio [4]: 35

C=CC(=O)Nc1cccc(Nc2nc(Nc3ccc(N4CCN(C)CC4)cc3)nc3ccc(C(F)(F)F)cc23)c1
IC50 (NCI-H1975): 4760 nM | IC50 (HCC827): 4680 nM | IC50 at 72 h [1]: > 10000 nM | IC50 at 72 h [2]: 7640 nM

C=CC(=O)Nc1cccc(Nc2nc(Nc3ccc(N4CCC(N5CCN(C)CC5)CC4)cc3OC)nc3ccc(F)cc23)c1
IC50 (NCI-H1975): 1020 nM | IC50 (HCC827): 1060 nM | IC50 at 72 h [1]: 8950 nM | IC50 at 72 h [2]: > 10000 nM

C=CC(=O)Nc1cccc(Nc2nc(Nc3ccc(N4CCN(C)CC4)cc3)nc3cc(F)ccc23)c1
IC50 (NCI-H1975): 2340 nM | IC50 (HCC827): 1040 nM | IC50 at 72 h [1]: 7810 nM | IC50 at 72 h [2]: 9040 nM

C=CC(=O)Nc1ccccc1Nc1nc(Nc2ccc(N3CCN(C)CC3)cc2)nc2ccc(Cl)cc12
IC50 (NCI-H1975): 1320 nM | IC50 (HCC827): 1020 nM | IC50 at 72 h [1]: > 10000 nM | IC50 at 72 h [2]: > 10000 nM

C=CC(=O)Nc1cccc(Nc2nc(Nc3ccc(N4CCN(C)CC4)cc3)nc3ccccc23)c1
IC50 (NCI-H1975): 2320 nM | IC50 (HCC827): 2320 nM | IC50 at 72 h [1]: 9850 nM | IC50 at 72 h [2]: 6790 nM

C=CC(=O)Nc1cccc(Nc2nc(Nc3ccc(C4CCN(C)CC4)cc3)nc3ccc(Cl)cc23)c1
IC50 (NCI-H1975): 3410 nM | IC50 (HCC827): 2700 nM | IC50 at 72 h [1]: > 10000 nM | IC50 at 72 h [2]: > 10000 nM

CN1CCN(c2ccc(Nc3nc(Nc4cccc(NC(=O)/C=C/c5ccccc5)c4)c4cc(Cl)ccc4n3)cc2)CC1
IC50 (NCI-H1975): 2310 nM | IC50 (HCC827): 1010 nM | IC50 at 72 h [1]: > 10000 nM | IC50 at 72 h [2]: 3220 nM

C=CC(=O)Nc1cccc(Nc2nc(Nc3ccc(C4CCN(C)CC4)cc3)nc3ccc(F)cc23)c1
IC50 (NCI-H1975): 1090 nM | IC50 (HCC827): 1850 nM | IC50 at 72 h [1]: 5860 nM | IC50 at 72 h [2]: > 10000 nM

C=CC(=O)Nc1cccc(Nc2nc(Nc3ccc(N4CCN(CC)CC4)cc3)nc3ccc(F)cc23)c1
IC50 (NCI-H1975): 25 nM | IC50 (HCC827): 11 nM | IC50 at 72 h [1]: 1520 nM | IC50 at 72 h [2]: 1550 nM | selectivity ratio [3]: 60 | selectivity ratio [4]: 62

C=CC(=O)Nc1cccc(Nc2nc(Nc3ccc(N(C)CCN(C)C)cc3)nc3ccc(F)cc23)c1
IC50 (NCI-H1975): 1790 nM | IC50 (HCC827): 850 nM | IC50 at 72 h [1]: 2570 nM | IC50 at 72 h [2]: 3150 nM

C=CC(=O)Nc1ccc(Nc2nc(Nc3ccc(N4CCN(C)CC4)cc3)nc3ccc(Cl)cc23)cc1
IC50 (NCI-H1975): 2320 nM | IC50 (HCC827): 1280 nM | IC50 at 72 h [1]: > 10000 nM | IC50 at 72 h [2]: > 10000 nM

C=CC(=O)Nc1cccc(Nc2nc(Nc3ccc(N4CCC(N5CCOCC5)CC4)cc3)nc3ccc(Cl)cc23)c1
IC50 (NCI-H1975): 7650 nM | IC50 (HCC827): 5720 nM | IC50 at 72 h [1]: > 10000 nM | IC50 at 72 h [2]: > 10000 nM

C=CC(=O)Nc1cccc(Nc2nc(Nc3ccc(N4CCN(C)CC4)cc3)nc3ccc([N+](=O)[O-])cc23)c1
IC50 (NCI-H1975): 6360 nM | IC50 (HCC827): 3700 nM | IC50 at 72 h [1]: > 10000 nM | IC50 at 72 h [2]: > 10000 nM

C=CC(=O)Nc1cccc(Nc2nc(Nc3ccc(N(C)CCN(C)C)cc3OC)nc3ccc(F)cc23)c1
IC50 (NCI-H1975): 8750 nM | IC50 (HCC827): 6580 nM | IC50 at 72 h [1]: > 10000 nM | IC50 at 72 h [2]: > 10000 nM

C=CC(=O)Nc1cccc(Nc2nc(Nc3ccc(N4CCN(C)CC4)cc3OC)nc3ccc(Cl)cc23)c1
IC50 (NCI-H1975): 321 nM | IC50 (HCC827): 120 nM | IC50 at 72 h [1]: 3520 nM | IC50 at 72 h [2]: 2420 nM
